Results on 11 molecules are retold here after US20070141661A1, “Cell extract for high-functioned cell-free protein synthesis and method of preparing the extract” (priority 2003, published 2007).

Molecules are shown by their SMILES.

The test system of experiment [1] is wheat embryo cell-free protein synthesis. Put plainly: Wheat embryo cell-free protein synthesis, batch method, 14C-leucine incorporation with DHFR mRNA. It is filed as biochemical. As to conditions: for Inhibition of protein synthesis, nucleotide added alone: 0.5 mM AMP or 0.25 mM GMP alone, not shown in figures; for Effect of standard sugar on protein synthesis: final concentration 0.5 mM, FIG. 2C; for Effect on protein synthesis when added back in an equivalent amount to highly functionalized protein synthesis solution: filtrate or components isolated from filtrate, FIG. 1B/2B; for Time until protein synthesis reaction terminated after adding back: filtrate or filtrate-derived component added in equivalent amount. How it is done: To an embryo extract solution, components necessary for translation were added and adjusted to prepare a translation reaction solution (30 mM HEPES-KOH, pH7.8, 100 mM potassium acetate, 2.7 mM magnesium acetate, 1.2 mM ATP, 0.25 mM GTP, 0.4 mM spermidine, 16 mM phosphocreatine, 40 μg/ml creatine kinase, 4 mM dithiothreitol, each 0.3 mM 19 kinds of leucine-lacking L-amino acids, and 0.005% sodium azide). The concentration of the embryo extract solution was 40 OD 260 nm per 1 ml of translation reaction solution). To this translation reaction solution, mRNA encoding dihydrofolate reductase (DHFR) (0.32 mg/ml) and ^14C-leucine were added, and protein synthesis was conducted at 26° C. through a batch method. The amount of synthesized protein was determined by measuring radioactivity of ^14C-labeled leucine incorporated into an acid-insoluble fraction as follows: a 3MM Whatman filter was blotted with […] of the reaction solution, and the filter was dipped into an ice-cold 10% TCA (trichloroacetic acid) for an hour, and then boiled in 5% TCA solution for 10 minutes. This filter was recovered and from which TCA and water were removed using ethanol and ether (50:50 vol), dried, and then radioactivity incorporated into a heat-TCA-insoluble fraction was measured by a liquid scintillation counter (toluene scintillator).
Using these embryo extracts, following the method described in Example 1, and under a condition where the concentration of extract solution was 40 OD 260 nm, protein synthesis was conducted and their synthesis activities were compared. The activities of protein synthesis were determined by measuring radioactivities of ^14C/5 μL reaction solution, wherein ^14C had been incorporated into a heat-acid-insoluble fraction after a three hour-long reaction. As gelfiltration operation proceeded, the concentration of glucose in an extract solution was decreased, and completely corresponding to that, the activity of protein synthesis was increased, and simultaneously an extremely stabilized reaction solution for protein synthesis was produced.

Experiment [2] concerns ATP in reaction solution. The experiment can be described thus: Temporal change of ATP concentration during protein synthesis reaction (cellulose thin layer chromatography, UV 260 nm). It is filed as biochemical, wheat. The note with it: for Concentration of ATP in system after adding sugar: 0.5 mM, within an hour after reaction, data not shown. How it is done: Next, to study the relation between decrease in concentration of ATP and the inhibition and destabilization mechanism of protein synthesis reaction, temporal changes of concentration of ATP under incubation was measured in the present and absence of glucose. Experiment was conducted on chromatography using a cellulose thin layer plate (Avicel: purchased from Funakoshi Co., Ltd) and a developing solvent of isobutyric acid:0.5 M ammonia (5:3). Using a synthesis system prepared with an extract solution treated through Amicon ultramembrane six times, protein synthesis reaction was conducted with or without adding glucose (1 mM), and to samples fractionated with time, an equivalent amount of cold ethanol was added, then supernatants obtained from centrifugation at 10,000×g were used to fractionate nucleotides on a thin layer plate. Using standard nucleotides from a conventional method as a fractionation marker, ATP was extracted from fractions, which was scraped out from fluorescent blots visualized with irradiation of ultraviolet ray, and the values of ultraviolet absorption at 260 nm were measured, thereby temporary changes of concentration of ATP in a reaction solution were determined. In an experiment where glucose was not added, as reaction proceeded, the concentration of ATP in the reaction solution was decreased (large ● in FIG. 3B) and in three hours after the reaction, decreased to around 60%. Kinetics of this decrease in concentration of ATP is well consistent with a decrease in the concentration of glucose (● in FIG. 3A). […] Though data are not shown, when protein synthesis reaction was conducted using an extract solution of 25 OD 260 nm, a decrease in the concentration of ATP was hardly shown until four hours after reaction, and along with it, the protein synthesis reaction was sustained linearly almost for four hours.

For experiment [3], the system named is wheat embryo cell-free protein synthesis. Put plainly: Stability of protein synthesis activity after 3 h preincubation at 26° C. without mRNA, then solution exchange. The note with it: 0.5 mM, no mRNA or 14C-leucine during incubation, FIG. 2C. In kind it is biochemical. As for the experimental part:
Next, destabilization of protein synthesis was further examined. Namely, samples obtained before and after Amicon ultra-centrifugal filtration as described above (but mRNA and ^14C-leucine had not been contained), were incubated for three hours at 26° C. (hereinafter, described as preincubation), and then both reaction solutions were respectively passed through Sephadex G25 spin column which had been equilibrated with a translation solution (containing amino acids, energy sources, various ions and buffer) for changing to a fresh translation solution, and after that, mRNA and ^14C-leucine were added to measure the activity of protein synthesis.
Next, to confirm the destabilization phenomena of protein synthesis system resulting from the addition glucose and preincubation, the system was incubated in the presence of 0.5 mM glucose (the system contained neither mRNA or ^14C-leucine) and the stability was examined in the same manner as explained in FIG. 1B.

As to `Nc1nc2c(ncn2[C@@H]2O[C@H](COP(=O)(O)O)[C@@H](O)[C@H]2O)c(=O)[nH]1` [GMP], in experiment [1], the “Inhibition of protein synthesis, nucleotide added alone” value is “inhibition of protein synthesis was not exhibited”.
In the case of `O=C[C@H](O)[C@@H](O)[C@H](O)[C@H](O)COP(=O)(O)O` [glucose-6-phosphate], the “Effect of standard sugar on protein synthesis” value (“Effect of standard sugar” for short) in experiment [1] is reported as “strong protein synthesis inhibitory effects”.
Consider `O=C[C@@H](O)[C@H](O)[C@@H](O)[C@@H](O)CO` [L-glucose], for which the “Effect of standard sugar” value in experiment [1] is reported as “no inhibitory effects”. Also, the “ATP remained after adding sugar” value in experiment [2] (1 mM added, FIG. 3B) is ~50%.
On to `Nc1ncnc2c1ncn2[C@@H]1O[C@H](COP(=O)(O)O)[C@@H](O)[C@H]1O` [AMP], for which the “Inhibition of protein synthesis, nucleotide added alone” value in experiment [1] was “inhibition of protein synthesis was not exhibited”.
Turning to `CC(=O)C(=O)O` [pyruvic acid], the “Effect of standard sugar” value in experiment [1] is on record as “no inhibitory effects on protein synthesis”.
The same measure, in the same setting: the entry for `C=C(OP(=O)(O)O)C(=O)O` [Phosphoenolpyruvic acid] is “no inhibitory effects on protein synthesis”.
As to `O=C[C@H](O)[C@@H](O)[C@@H](O)[C@H](O)CO` [galactose], the “Effect of standard sugar” value in experiment [1] was “strong protein synthesis inhibitory effects”. Further, the “Concentration of ATP in system after adding sugar” value in experiment [2] is given as “below the detection limit”.
The corresponding values for `O=C(CO)[C@@H](O)[C@H](O)[C@H](O)CO` [fructose] are “strong protein synthesis inhibitory effects” and “below the detection limit”.
On to `OC[C@H]1O[C@@](CO)(O[C@H]2O[C@H](CO)[C@@H](O)[C@H](O)[C@H]2O)[C@@H](O)[C@@H]1O` [sucrose], for which, in experiment [1], the “Effect on protein synthesis when added back in an equivalent amount to highly functionalized protein synthesis solution” value (“Effect on protein synthesis” for short) is “strong inhibitory and destabilization effects”; the “Time until protein synthesis reaction terminated after adding back” value is given as “two”; the “Effect of standard sugar” value is “strong protein synthesis inhibitory effects”. Moreover, in experiment [2], the “Concentration of ATP in system after adding sugar” value is recorded as “below the detection limit”.
Take `OC[C@H]1O[C@H](OC[C@H]2O[C@H](O[C@]3(CO)O[C@H](CO)[C@@H](O)[C@@H]3O)[C@H](O)[C@@H](O)[C@@H]2O)[C@H](O)[C@@H](O)[C@H]1O` [raffinose]: the “Effect on protein synthesis” value in experiment [1] was “did not show inhibitory effects”.
For the molecule `O=C[C@H](O)[C@@H](O)[C@H](O)[C@H](O)CO` [glucose, D-glucose], in experiment [1], the “Effect on protein synthesis” value was “strong inhibitory and destabilization effects”; the “Time until protein synthesis reaction terminated after adding back” value is given as “two”; the “Effect of standard sugar” value is “strong protein synthesis inhibitory effects”. Further, in experiment [3], the “Protein synthesis capacity after preincubation in the presence of sugar” value is “irreversibly inactivates a protein synthesis capacity”. In experiment [2] (1 mM added, in an hour, FIG. 3B), the “ATP in the reaction solution after adding sugar” value is on record as “almost all ATP in the reaction solution was consumed”.
